Data: patent publication US20230265151A1, “GIP/GLP1 CO-AGONIST COMPOUNDS” (priority 2020, published 2023)
Read-outs that look alike come from different tables or passages of the source.

Key:
hGIPR = molecular target: T1, hGIPR (Homo sapiens, UniProt P48546); assay: Functional cAMP formation (HTRF) in HEK-293 clonal cells expressing hGIPR, 0.1% bovine casein, without or with 1.0% human serum albumin; format: cell-based; settings: for EC50: cAMP, 0.1% bovine casein (no human serum albumin), geometric mean
T1 construct: expressed in transfected cells
T1 sequence (P48546 22-466): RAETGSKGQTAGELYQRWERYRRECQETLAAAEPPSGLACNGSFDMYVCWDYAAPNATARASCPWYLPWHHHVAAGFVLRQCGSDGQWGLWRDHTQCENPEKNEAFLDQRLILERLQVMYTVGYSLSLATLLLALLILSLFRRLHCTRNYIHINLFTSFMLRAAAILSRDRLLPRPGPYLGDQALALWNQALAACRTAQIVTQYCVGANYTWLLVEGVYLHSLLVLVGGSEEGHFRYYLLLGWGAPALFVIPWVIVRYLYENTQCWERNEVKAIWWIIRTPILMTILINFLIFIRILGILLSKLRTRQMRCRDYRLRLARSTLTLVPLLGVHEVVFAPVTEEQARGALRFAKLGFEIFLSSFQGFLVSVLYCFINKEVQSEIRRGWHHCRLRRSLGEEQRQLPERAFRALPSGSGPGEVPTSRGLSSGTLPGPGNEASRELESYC
Outline: (§1)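 Cells were stimulated with peptide for 30 min at 37° C, then lysed in buffer carrying cAMP-d2 and anti-cAMP Eu3+-cryptate for a competitive HTRF read after at least 60 min at room temperature. The 665/620 nm ratio was converted to nM cAMP against a standard curve.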

hGCGR = molecular target: T2, hGCGR (Homo sapiens, UniProt P47871); assay: Functional cAMP formation (HTRF) in HEK-293 clonal cells expressing hGCGR, 0.1% bovine casein, without or with 1.0% human serum albumin; format: cell-based
T2 construct: expressed in transfected cells
T2 sequence (P47871 26-477): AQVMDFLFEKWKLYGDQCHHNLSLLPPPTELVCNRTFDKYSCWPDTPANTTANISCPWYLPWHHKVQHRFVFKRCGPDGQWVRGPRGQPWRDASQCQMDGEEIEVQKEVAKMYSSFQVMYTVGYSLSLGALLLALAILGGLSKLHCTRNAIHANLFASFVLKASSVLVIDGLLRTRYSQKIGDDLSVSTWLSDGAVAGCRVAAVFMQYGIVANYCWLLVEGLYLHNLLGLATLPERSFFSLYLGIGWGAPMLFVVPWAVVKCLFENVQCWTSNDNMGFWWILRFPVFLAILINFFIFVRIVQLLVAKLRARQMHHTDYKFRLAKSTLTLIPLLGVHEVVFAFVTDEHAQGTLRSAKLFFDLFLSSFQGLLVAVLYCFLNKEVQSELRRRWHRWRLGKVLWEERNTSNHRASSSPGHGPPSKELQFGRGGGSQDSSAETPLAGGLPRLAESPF
Outline: as §1

[1] = hGCGR EC50, nM (SEM, n), cAMP, 37° C., 0.1% bovine casein (no human serum albumin), geometric mean

## CC[C@H](C)[C@H](NC(=O)[C@H](CCCN)NC(=O)[C@H](CC(=O)O)NC(=O)[C@H](CC(C)C)NC(=O)[C@](C)(CC(C)C)NC(=O)[C@@H](NC(=O)[C@H](CO)NC(=O)[C@H](Cc1ccncc1)NC(=O)[C@H](CC(=O)O)NC(=O)[C@H](CO)NC(=O)[C@@H](NC(=O)[C@](C)(Cc1ccccc1F)NC(=O)[C@@H](NC(=O)CNC(=O)[C@H](CCC(=O)O)NC(=O)C(C)(C)NC(=O)[C@@H](N)Cc1ccc(O)cc1)[C@@H](C)O)[C@@H](C)O)[C@@H](C)CC)C(=O)N[C@@H](C)C(=O)N[C@@H](CCC(N)=O)C(=O)NC(C)(C)C(=O)N[C@@H](CCCCNC(=O)COCCOCCNC(=O)COCCOCCNC(=O)CC[C@H](NC(=O)CCCCCCCCCOc1ccc(C(=O)O)cc1)C(=O)O)C(=O)N[C@@H](Cc1ccccc1)C(=O)N[C@H](C(=O)N[C@H](CCC(=O)O)C(=O)N[C@@](C)(Cc1ccc(O)cc1)C(=O)N[C@@H](CC(C)C)C(=O)N[C@H](C(=O)N[C@@H](CCC(=O)O)C(=O)NCC(=O)NCC(=O)N1CCC[C@H]1C(=O)N[C@@H](CO)C(=O)N[C@@H](CO)C(=O)NCC(=O)N[C@@H](C)C(=O)N1CCC[C@H]1C(=O)N1CCC[C@H]1C(=O)N1CCC[C@H]1C(=O)N[C@@H](CO)C(=O)N[C@@H](CCCCNC(=O)COCCOCCNC(=O)COCCOCCNC(=O)CC[C@H](NC(=O)CCCCCCCCCOc1ccc(C(=O)O)cc1)C(=O)O)C(N)=O)[C@@H](C)CC)[C@@H](C)CC [Example 276]
hGIPR; HEK293, read-out: hGIPR Emax, % ± SEM, 0.1% bovine casein and 1.0% human serum albumin, 37° C., percent of maximal response to GIP(1-42)NH2
  Emax: 91.4%
hGIPR; hGIPR EC50, nM (SEM, n), 37° C.
  EC50: 0.0134 nM
hGCGR; hGCGR EC50, nM (SEM, n), 0.1% bovine casein and 1.0% human serum albumin, 37° C., geometric mean
  EC50: > 9950 nM
hGCGR; [1]
  EC50: > 9950 nM

## CC[C@H](C)[C@H](NC(=O)[C@H](CCCN)NC(=O)[C@H](CC(=O)O)NC(=O)[C@H](CC(C)C)NC(=O)[C@](C)(CC(C)C)NC(=O)[C@@H](NC(=O)[C@H](CO)NC(=O)[C@H](CCCCNC(=O)COCCOCCNC(=O)COCCOCCNC(=O)CC[C@H](NC(=O)CCCCCCCCCCCCC(=O)O)C(=O)O)NC(=O)[C@H](CC(=O)O)NC(=O)[C@H](CO)NC(=O)[C@@H](NC(=O)[C@](C)(Cc1ccccc1F)NC(=O)[C@@H](NC(=O)CNC(=O)[C@H](CCC(=O)O)NC(=O)C(C)(C)NC(=O)[C@@H](N)Cc1ccc(O)cc1)[C@@H](C)O)[C@@H](C)O)[C@@H](C)CC)C(=O)N[C@@H](C)C(=O)N[C@@H](CCC(N)=O)C(=O)NC(C)(C)C(=O)N[C@@H](CCC(=O)O)C(=O)N[C@@H](Cc1ccccc1)C(=O)N[C@H](C(=O)N[C@@H](CCCCNC(=O)COCCOCCNC(=O)COCCOCCNC(=O)CC[C@H](NC(=O)CCCCCCCCCCCCC(=O)O)C(=O)O)C(=O)N[C@@](C)(Cc1ccc(O)cc1)C(=O)N[C@@H](CC(C)C)C(=O)N[C@H](C(=O)N[C@@H](CCC(=O)O)C(=O)NCC(=O)NCC(=O)N1CCC[C@H]1C(=O)N[C@@H](CO)C(=O)N[C@@H](CO)C(=O)NCC(=O)N[C@@H](C)C(=O)N1CCC[C@H]1C(=O)N1CCC[C@H]1C(=O)N1CCC[C@H]1C(=O)N[C@@H](CO)C(N)=O)[C@@H](C)CC)[C@@H](C)CC [Example 106]
hGIPR; HEK293, read-out: hGIPR Emax, % ± SEM, percent of maximal response to GIP(1-42)NH2, 37° C., 0.1% bovine casein, arithmetic mean
  Emax: 98.7 ± 3.32%
hGIPR; hGIPR EC50, nM (SEM, n), incubated at 37° C.
  EC50: 0.0385 nM
hGCGR; hGCGR EC50, nM (SEM, n), cAMP, incubated at 37° C., 0.1% bovine casein (no human serum albumin), geometric mean
  EC50: > 9950 nM

## CCCC[C@H](NC(=O)[C@H](CC(=O)O)NC(=O)[C@H](CO)NC(=O)[C@@H](NC(=O)[C@](C)(Cc1ccccc1F)NC(=O)[C@@H](NC(=O)CNC(=O)[C@H](CCC(=O)O)NC(=O)C(C)(C)NC(=O)[C@@H](N)Cc1ccc(O)cc1)[C@@H](C)O)[C@@H](C)O)C(=O)N[C@@H](CO)C(=O)N[C@H](C(=O)N[C@@](C)(CC(C)C)C(=O)N[C@@H](CC(C)C)C(=O)N[C@@H](CC(=O)O)C(=O)N[C@@H](CCCN)C(=O)N[C@@H](CCCCNC(=O)COCCOCCNC(=O)COCCOCCNC(=O)CC[C@H](NC(=O)CCCCCCCCCOc1ccc(C(=O)O)cc1)C(=O)O)C(=O)N[C@@H](C)C(=O)N[C@@H](CCC(N)=O)C(=O)NC(C)(C)C(=O)N[C@@H](CCC(=O)O)C(=O)N[C@@H](Cc1ccccc1)C(=O)N[C@H](C(=O)N[C@H](CCC(=O)O)C(=O)N[C@@](C)(Cc1ccc(O)cc1)C(=O)N[C@@H](CC(C)C)C(=O)N[C@H](C(=O)N[C@@H](CCCCNC(=O)COCCOCCNC(=O)COCCOCCNC(=O)CC[C@H](NC(=O)CCCCCCCCCOc1ccc(C(=O)O)cc1)C(=O)O)C(=O)NCC(=O)NCC(=O)N1CCC[C@H]1C(=O)N[C@@H](CO)C(=O)N[C@@H](CO)C(=O)NCC(=O)N[C@@H](C)C(=O)N1CCC[C@H]1C(=O)N1CCC[C@H]1C(=O)N1CCC[C@H]1C(=O)N[C@@H](CO)C(N)=O)[C@@H](C)CC)[C@@H](C)CC)[C@@H](C)CC [Example 328]
hGIPR; HEK293, read-out: hGIPR Emax, % ± SEM, cAMP, 37° C., 0.1% bovine casein and 1.0% human serum albumin, percent of maximal response to GIP(1-42)NH2
  Emax: 85.5%
hGCGR; [1]
  EC50: > 9950 nM
hGCGR; hGCGR EC50, nM (SEM, n), cAMP, 37° C., 0.1% bovine casein and 1.0% human serum albumin, geometric mean (SEM, n)
  EC50: > 9950 nM

## CC[C@H](C)[C@H](NC(=O)[C@H](CC(C)C)NC(=O)[C@](C)(Cc1ccc(O)cc1)NC(=O)[C@@H](CCC(=O)O)NC(=O)[C@@H](NC(=O)[C@H](Cc1ccccc1)NC(=O)[C@H](CCCCNC(=O)COCCOCCNC(=O)COCCOCCNC(=O)CCCCCCCCCCCCC(=O)O)NC(=O)C(C)(C)NC(=O)[C@H](CCC(N)=O)NC(=O)[C@H](C)NC(=O)[C@H](CCCCNC(=O)COCCOCCNC(=O)COCCOCCNC(=O)CCCCCCCCCCCCC(=O)O)NC(=O)[C@H](CCCN)NC(=O)[C@H](CC(=O)O)NC(=O)[C@H](CC(C)C)NC(=O)[C@](C)(CC(C)C)NC(=O)[C@@H](NC(=O)[C@H](CO)NC(=O)[C@H](Cc1ccc2ccccc2c1)NC(=O)[C@H](CC(=O)O)NC(=O)[C@H](CO)NC(=O)[C@@H](NC(=O)[C@](C)(Cc1ccccc1F)NC(=O)[C@@H](NC(=O)CNC(=O)[C@H](CCC(=O)O)NC(=O)C(C)(C)NC(=O)[C@@H](N)Cc1ccc(O)cc1)[C@@H](C)O)[C@@H](C)O)[C@@H](C)CC)[C@@H](C)CC)C(=O)N[C@@H](CCC(=O)O)C(=O)NCC(=O)NCC(=O)N1CCC[C@H]1C(=O)N[C@@H](CO)C(=O)N[C@@H](CO)C(=O)NCC(=O)N[C@@H](C)C(=O)N1CCC[C@H]1C(=O)N1CCC[C@H]1C(=O)N1CCC[C@H]1C(=O)N[C@@H](CO)C(N)=O [Example 255]
hGIPR; HEK293, 0.1% bovine casein and 1.0% human serum albumin, 37° C., percent of maximal response to GIP(1-42)NH2, read-out: hGIPR Emax, % ± SEM
  Emax: 93.4%
hGIPR; 37° C., read-out: hGIPR EC50, nM (SEM, n)
  EC50: 0.0213 nM
hGCGR; 0.1% bovine casein and 1.0% human serum albumin, 37° C., geometric mean, read-out: hGCGR EC50, nM (SEM, n)
  EC50: > 9950 nM
hGCGR; cAMP, 37° C., 0.1% bovine casein (no human serum albumin), geometric mean, read-out: hGCGR EC50, nM (SEM, n)
  EC50: > 9950 nM

## CC[C@H](C)[C@H](NC(=O)[C@H](CC(C)C)NC(=O)[C@](C)(Cc1ccc(O)cc1)NC(=O)[C@@H](CCC(=O)O)NC(=O)[C@@H](NC(=O)[C@H](Cc1ccccc1)NC(=O)[C@H](CCC(=O)O)NC(=O)[C@](C)(Cc1ccccc1)NC(=O)[C@H](CCC(N)=O)NC(=O)[C@H](C)NC(=O)[C@H](CCCCNC(=O)COCCOCCNC(=O)COCCOCCNC(=O)CC[C@H](NC(=O)CCCCCCCCCCCCC(=O)O)C(=O)O)NC(=O)[C@H](CCCN)NC(=O)[C@H](CC(=O)O)NC(=O)[C@H](CC(C)C)NC(=O)[C@](C)(CC(C)C)NC(=O)[C@@H](NC(=O)[C@H](CO)NC(=O)[C@H](Cc1ccncc1)NC(=O)[C@H](CC(=O)O)NC(=O)[C@H](CO)NC(=O)[C@@H](NC(=O)[C@](C)(Cc1ccccc1F)NC(=O)[C@@H](NC(=O)CNC(=O)[C@H](CCC(=O)O)NC(=O)C(C)(C)NC(=O)[C@@H](N)Cc1ccc(O)cc1)[C@@H](C)O)[C@@H](C)O)[C@@H](C)CC)[C@@H](C)CC)C(=O)N[C@@H](CCC(=O)O)C(=O)NCC(=O)NCC(=O)N[C@@H](CCCCNC(=O)COCCOCCNC(=O)COCCOCCNC(=O)CC[C@H](NC(=O)CCCCCCCCCCCCC(=O)O)C(=O)O)C(=O)N[C@@H](CO)C(=O)N[C@@H](CO)C(=O)NCC(=O)N[C@@H](C)C(=O)N1CCC[C@H]1C(=O)N1CCC[C@H]1C(=O)N1CCC[C@H]1C(=O)N[C@@H](CO)C(N)=O [Example 169]
hGIPR; HEK293, percent of maximal response to GIP(1-42)NH2, 37° C., 0.1% bovine casein, arithmetic mean, read-out: hGIPR Emax, % ± SEM
  Emax: 96.1%
hGCGR; cAMP, incubated at 37° C., 0.1% bovine casein (no human serum albumin), geometric mean, read-out: hGCGR EC50, nM (SEM, n)
  EC50: > 9950 nM
